Assay results: PubChem BioAssay (NCI)
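GI50 is the concentration that inhibits growth by half. TGI denotes the concentration required for complete inhibition of growth.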

How the values were obtained:
Assay in all cases: NCI tumour cell line growth inhibition, 384-well format
HOP-92 NSCLC = tested on: HOP-92 NSCLC
COLO 205 colon = tested on: COLO 205 colon
BT-549 breast = tested on: BT-549 breast
NCI-H322M lung = tested on: NCI-H322M lung
HOP-62 NSCLC = tested on: HOP-62 NSCLC
KM12 colon = tested on: KM12 colon
NCI-H23 lung = tested on: NCI-H23 lung
IGROV1 ovarian = tested on: IGROV1 ovarian
NCI-H522 lung = tested on: NCI-H522 lung
RXF 393 renal = tested on: RXF 393 renal
TK-10 renal = tested on: TK-10 renal
HT29 colon = tested on: HT29 colon
786-0 renal = tested on: 786-0 renal
HCT-116 colon = tested on: HCT-116 colon
A498 renal = tested on: A498 renal
NCI/ADR-RES ovarian = tested on: NCI/ADR-RES ovarian
MOLT-4 leukemia = tested on: MOLT-4 leukemia
M14 melanoma = tested on: M14 melanoma
EKVX NSCLC = tested on: EKVX NSCLC
OVCAR-8 ovarian = tested on: OVCAR-8 ovarian
OVCAR-4 ovarian = tested on: OVCAR-4 ovarian
MCF7 breast = tested on: MCF7 breast
NCI-H226 lung = tested on: NCI-H226 lung
HCC-2998 colon = tested on: HCC-2998 colon
OVCAR-5 ovarian = tested on: OVCAR-5 ovarian
DU-145 prostate = tested on: DU-145 prostate
ACHN renal = tested on: ACHN renal
UACC-257 melanoma = tested on: UACC-257 melanoma
SR leukemia = tested on: SR leukemia
MDA-MB-231 breast = tested on: MDA-MB-231 breast
HS 578T breast = tested on: HS 578T breast
SF-268 CNS = tested on: SF-268 CNS
LOX IMVI melanoma = tested on: LOX IMVI melanoma
HCT-15 colon = tested on: HCT-15 colon
MALME-3M melanoma = tested on: MALME-3M melanoma
PC-3 prostate = tested on: PC-3 prostate
SNB-19 CNS = tested on: SNB-19 CNS
T-47D breast = tested on: T-47D breast
SF-539 CNS = tested on: SF-539 CNS
SW-620 colon = tested on: SW-620 colon
A549 NSCLC = tested on: A549 NSCLC
CAKI-1 renal = tested on: CAKI-1 renal
SK-OV-3 ovarian = tested on: SK-OV-3 ovarian
RPMI-8226 leukemia = tested on: RPMI-8226 leukemia
UACC-62 melanoma = tested on: UACC-62 melanoma
MDA-MB-435 melanoma = tested on: MDA-MB-435 melanoma
SK-MEL-5 melanoma = tested on: SK-MEL-5 melanoma
HL-60(TB) leukemia = tested on: HL-60(TB) leukemia
SF-295 CNS = tested on: SF-295 CNS
U251 glioblastoma = tested on: U251 glioblastoma
SN12C renal = tested on: SN12C renal
SNB-75 CNS = tested on: SNB-75 CNS
OVCAR-3 ovarian = tested on: OVCAR-3 ovarian
MDA-MB-468 breast = tested on: MDA-MB-468 breast
SK-MEL-28 melanoma = tested on: SK-MEL-28 melanoma
UO-31 renal = tested on: UO-31 renal
NCI-H460 NSCLC = tested on: NCI-H460 NSCLC

C[C@]12CC[C@@H]3c4ccc(OC(=O)N(CCCl)CCCl)cc4CC[C@H]3[C@@H]1CC[C@@H]2OP(=O)(O)O
GI50 (HOP-92 NSCLC): > 100 µM
TGI (HOP-92 NSCLC): > 100 µM
GI50 (COLO 205 colon): > 100 µM
TGI (COLO 205 colon): > 100 µM
GI50 (BT-549 breast): 25 µM
TGI (BT-549 breast): > 100 µM
GI50 (NCI-H322M lung): > 100 µM
TGI (NCI-H322M lung): > 100 µM
GI50 (HOP-62 NSCLC): > 100 µM
TGI (HOP-62 NSCLC): > 100 µM
GI50 (KM12 colon): > 100 µM
TGI (KM12 colon): > 100 µM
GI50 (NCI-H23 lung): > 100 µM
TGI (NCI-H23 lung): > 100 µM
GI50 (IGROV1 ovarian): > 100 µM
TGI (IGROV1 ovarian): > 100 µM
GI50 (NCI-H522 lung): > 100 µM
TGI (NCI-H522 lung): > 100 µM
GI50 (RXF 393 renal): 47.7 µM
TGI (RXF 393 renal): > 100 µM
GI50 (TK-10 renal): > 100 µM
TGI (TK-10 renal): > 100 µM
GI50 (HT29 colon): > 100 µM
TGI (HT29 colon): > 100 µM
GI50 (786-0 renal): > 100 µM
TGI (786-0 renal): > 100 µM
GI50 (HCT-116 colon): > 100 µM
TGI (HCT-116 colon): > 100 µM
GI50 (A498 renal): > 100 µM
TGI (A498 renal): > 100 µM
GI50 (NCI/ADR-RES ovarian): > 100 µM
TGI (NCI/ADR-RES ovarian): > 100 µM
GI50 (MOLT-4 leukemia): > 100 µM
TGI (MOLT-4 leukemia): > 100 µM
GI50 (M14 melanoma): > 100 µM
TGI (M14 melanoma): > 100 µM
GI50 (EKVX NSCLC): > 100 µM
TGI (EKVX NSCLC): > 100 µM
GI50 (OVCAR-8 ovarian): > 100 µM
TGI (OVCAR-8 ovarian): > 100 µM
GI50 (OVCAR-4 ovarian): > 100 µM
TGI (OVCAR-4 ovarian): > 100 µM
GI50 (MCF7 breast): > 100 µM
TGI (MCF7 breast): > 100 µM
GI50 (NCI-H226 lung): > 100 µM
TGI (NCI-H226 lung): > 100 µM
GI50 (HCC-2998 colon): > 100 µM
TGI (HCC-2998 colon): > 100 µM
GI50 (OVCAR-5 ovarian): > 100 µM
TGI (OVCAR-5 ovarian): > 100 µM
GI50 (DU-145 prostate): > 100 µM
TGI (DU-145 prostate): > 100 µM
GI50 (ACHN renal): > 100 µM
TGI (ACHN renal): > 100 µM
GI50 (UACC-257 melanoma): > 100 µM
TGI (UACC-257 melanoma): > 100 µM
GI50 (SR leukemia): > 100 µM
TGI (SR leukemia): > 100 µM
GI50 (MDA-MB-231 breast): > 100 µM
TGI (MDA-MB-231 breast): > 100 µM
GI50 (HS 578T breast): > 100 µM
TGI (HS 578T breast): > 100 µM
GI50 (SF-268 CNS): > 100 µM
TGI (SF-268 CNS): > 100 µM
GI50 (LOX IMVI melanoma): > 100 µM
TGI (LOX IMVI melanoma): > 100 µM
GI50 (HCT-15 colon): > 100 µM
TGI (HCT-15 colon): > 100 µM
GI50 (MALME-3M melanoma): > 100 µM
TGI (MALME-3M melanoma): > 100 µM
GI50 (PC-3 prostate): > 100 µM
TGI (PC-3 prostate): > 100 µM
GI50 (SNB-19 CNS): > 100 µM
TGI (SNB-19 CNS): > 100 µM
GI50 (T-47D breast): > 100 µM
TGI (T-47D breast): > 100 µM
GI50 (SF-539 CNS): > 100 µM
TGI (SF-539 CNS): > 100 µM
GI50 (SW-620 colon): > 100 µM
TGI (SW-620 colon): > 100 µM
GI50 (A549 NSCLC): > 100 µM
TGI (A549 NSCLC): > 100 µM
GI50 (CAKI-1 renal): > 100 µM
TGI (CAKI-1 renal): > 100 µM
GI50 (SK-OV-3 ovarian): > 100 µM
TGI (SK-OV-3 ovarian): > 100 µM
GI50 (RPMI-8226 leukemia): > 100 µM
TGI (RPMI-8226 leukemia): > 100 µM
GI50 (UACC-62 melanoma): > 100 µM
TGI (UACC-62 melanoma): > 100 µM
GI50 (MDA-MB-435 melanoma): 41.2 µM
TGI (MDA-MB-435 melanoma): > 100 µM
GI50 (SK-MEL-5 melanoma): > 100 µM
TGI (SK-MEL-5 melanoma): > 100 µM
GI50 (HL-60(TB) leukemia): > 100 µM
TGI (HL-60(TB) leukemia): > 100 µM
GI50 (SF-295 CNS): > 100 µM
TGI (SF-295 CNS): > 100 µM
GI50 (U251 glioblastoma): > 100 µM
TGI (U251 glioblastoma): > 100 µM
GI50 (SN12C renal): > 100 µM
TGI (SN12C renal): > 100 µM
GI50 (SNB-75 CNS): > 100 µM
TGI (SNB-75 CNS): > 100 µM
GI50 (OVCAR-3 ovarian): > 100 µM
TGI (OVCAR-3 ovarian): > 100 µM
GI50 (MDA-MB-468 breast): > 100 µM
TGI (MDA-MB-468 breast): > 100 µM
GI50 (SK-MEL-28 melanoma): > 100 µM
TGI (SK-MEL-28 melanoma): > 100 µM
GI50 (UO-31 renal): > 100 µM
TGI (UO-31 renal): > 100 µM
GI50 (NCI-H460 NSCLC): > 100 µM
TGI (NCI-H460 NSCLC): > 100 µM
